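Protocol summary: plate cells (96-well), add compound at 5 concentrations, incubate 48 h, interpolate endpoints linearly. GI50 = concentration required for 50% inhibition of growth.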 The source made the active and inactive calls. No stated cut-off is given here; in the data, active = GI50 up to about 1.1 µM and inactive = higher.
How the values were obtained:
Experiment in all cases: DTP human tumour cell line panel, 48 h
LXFL 529 = tested on: LXFL 529
SF-295 = tested on: SF-295
HL-60 = tested on: HL-60
KM-20L2 = tested on: KM-20L2
DLD-1 = tested on: DLD-1
NCI-H226 = tested on: NCI-H226
SN12C = tested on: SN12C
RXF 631 = tested on: RXF 631
SK-MEL-5 = tested on: SK-MEL-5
XF498 = tested on: XF498
SK-MEL-2 = tested on: SK-MEL-2
COLO 205 = tested on: COLO 205
DMS-273 = tested on: DMS-273
A498 = tested on: A498
KM12 = tested on: KM12
M14 = tested on: M14
Malme-3M = tested on: Malme-3M
SW-620 = tested on: SW-620
SF-268 = tested on: SF-268
HCC 2998 = tested on: HCC 2998
HCT-15 = tested on: HCT-15
NCI-H460 = tested on: NCI-H460
SNB-75 = tested on: SNB-75
786-0 = tested on: 786-0
ACHN = tested on: ACHN
RXF 393 = tested on: RXF 393
U-251 = tested on: U-251
A549 = tested on: A549
RPMI-8226 = tested on: RPMI-8226
SK-OV-3 = tested on: SK-OV-3
DMS-114 = tested on: DMS-114
UACC-257 = tested on: UACC-257
SK-MEL-28 = tested on: SK-MEL-28
SNB-19 = tested on: SNB-19
HCT-116 = tested on: HCT-116
SR = tested on: SR
OVCAR-4 = tested on: OVCAR-4
HOP-62 = tested on: HOP-62
MOLT-4 = tested on: MOLT-4
TK-10 = tested on: TK-10
SNB-78 = tested on: SNB-78
CAKI-1 = tested on: CAKI-1
HOP-92 = tested on: HOP-92
NCI-H23 = tested on: NCI-H23
NCI-H522 = tested on: NCI-H522
OVCAR-5 = tested on: OVCAR-5
LOX IMVI = tested on: LOX IMVI
HOP-18 = tested on: HOP-18
HT-29 = tested on: HT-29
EKVX = tested on: EKVX
OVCAR-3 = tested on: OVCAR-3
UACC-62 = tested on: UACC-62
CCRF-CEM = tested on: CCRF-CEM
SF-539 = tested on: SF-539
UO-31 = tested on: UO-31
OVCAR-8 = tested on: OVCAR-8
K562 = tested on: K562
M19-MEL = tested on: M19-MEL
IGROV-1 = tested on: IGROV-1

In the case of Nc1ncnc2c1ncn2[C@]1(CO)C=C(CO)C(O)C1O (stereo partly drawn), the GI50 (LXFL 529) was > 100 µM (inactive), the GI50 (SF-295) was > 100 µM (inactive) and the GI50 (HL-60) was > 100 µM (inactive). The GI50 (KM-20L2) was > 100 µM (inactive), the GI50 (DLD-1) was > 100 µM (inactive) and the GI50 (NCI-H226) was > 100 µM (inactive). The GI50 (SN12C) was > 100 µM (inactive), the GI50 (RXF 631) was > 100 µM (inactive) and the GI50 (SK-MEL-5) was > 100 µM (inactive). For the same molecule, the GI50 (XF498) was > 100 µM (inactive), the GI50 (SK-MEL-2) was > 100 µM (inactive) and the GI50 (COLO 205) was > 100 µM (inactive). The GI50 (DMS-273) was > 100 µM (inactive), the GI50 (A498) was > 100 µM (inactive) and the GI50 (KM12) was > 100 µM (inactive). The GI50 (M14) was > 100 µM (inactive), the GI50 (Malme-3M) was > 100 µM (inactive) and the GI50 (SW-620) was > 100 µM (inactive). For the same molecule, the GI50 (SF-268) was > 100 µM (inactive), the GI50 (HCC 2998) was > 100 µM (inactive) and the GI50 (HCT-15) was over 100 µM. The GI50 (NCI-H460) was > 100 µM (inactive), the GI50 (SNB-75) was > 100 µM (inactive) and the GI50 (786-0) was > 100 µM (inactive). For the same molecule, the GI50 (ACHN) was > 100 µM (inactive), the GI50 (RXF 393) was > 100 µM (inactive) and the GI50 (U-251) was > 100 µM (inactive). For the same molecule, the GI50 (A549) was > 100 µM (inactive), the GI50 (RPMI-8226) was > 100 µM (inactive) and the GI50 (SK-OV-3) was > 100 µM (inactive). For the same molecule, the GI50 (DMS-114) was > 100 µM (inactive), the GI50 (UACC-257) was > 100 µM (inactive) and the GI50 (SK-MEL-28) was > 100 µM (inactive). The GI50 (SNB-19) was > 100 µM (inactive), the GI50 (HCT-116) was 73.1 µM (inactive) and the GI50 (SR) was > 100 µM (inactive). For the same molecule, the GI50 (OVCAR-4) was > 100 µM (inactive), the GI50 (HOP-62) was 52.5 µM (inactive) and the GI50 (MOLT-4) was > 100 µM (inactive). The GI50 (TK-10) was > 100 µM (inactive), the GI50 (SNB-78) was > 100 µM (inactive) and the GI50 (CAKI-1) was > 100 µM (inactive). The GI50 (HOP-92) was > 100 µM (inactive), the GI50 (NCI-H23) was > 100 µM (inactive) and the GI50 (NCI-H522) was > 100 µM (inactive). For the same molecule, the GI50 (OVCAR-5) was 80.4 µM (inactive), the GI50 (LOX IMVI) was > 100 µM (inactive) and the GI50 (HOP-18) was > 100 µM (inactive). For the same molecule, the GI50 (HT-29) was > 100 µM (inactive).

CN(C)c1ccc(/C=C(\C#N)C(=O)c2ccccc2)cc1Br was tested, and the GI50 (LXFL 529) was > 100 µM (inactive), the GI50 (SF-295) was > 100 µM (inactive) and the GI50 (HL-60) was 25.7 µM (inactive). For the same molecule, the GI50 (KM-20L2) was > 100 µM (inactive), the GI50 (DLD-1) was 67.5 µM (inactive) and the GI50 (NCI-H226) was 39.3 µM (inactive). For the same molecule, the GI50 (SN12C) was > 100 µM (inactive), the GI50 (RXF 631) was > 100 µM (inactive) and the GI50 (SK-MEL-5) was 96.2 µM (inactive). For the same molecule, the GI50 (XF498) was > 100 µM (inactive), the GI50 (SK-MEL-2) was > 100 µM (inactive) and the GI50 (COLO 205) was > 100 µM (inactive). The GI50 (EKVX) was > 100 µM (inactive), the GI50 (DMS-273) was > 100 µM (inactive) and the GI50 (KM12) was > 100 µM (inactive). The GI50 (M14) was > 100 µM (inactive), the GI50 (OVCAR-3) was > 100 µM (inactive) and the GI50 (Malme-3M) was > 100 µM (inactive). For the same molecule, the GI50 (SW-620) was 66.1 µM (inactive), the GI50 (SF-268) was > 100 µM (inactive) and the GI50 (HCC 2998) was > 100 µM (inactive). For the same molecule, the GI50 (UACC-62) was 51.3 µM (inactive), the GI50 (CCRF-CEM) was 35.6 µM (inactive) and the GI50 (NCI-H460) was > 100 µM (inactive). For the same molecule, the GI50 (SF-539) was > 100 µM (inactive), the GI50 (SNB-75) was 41.8 µM (inactive) and the GI50 (UO-31) was > 100 µM (inactive). The GI50 (786-0) was > 100 µM (inactive), the GI50 (ACHN) was > 100 µM (inactive) and the GI50 (RXF 393) was 14.6 µM (inactive). For the same molecule, the GI50 (U-251) was > 100 µM (inactive), the GI50 (A549) was > 100 µM (inactive) and the GI50 (RPMI-8226) was 25.8 µM (inactive). For the same molecule, the GI50 (OVCAR-8) was > 100 µM (inactive), the GI50 (SK-OV-3) was > 100 µM (inactive) and the GI50 (DMS-114) was > 100 µM (inactive). For the same molecule, the GI50 (UACC-257) was > 100 µM (inactive), the GI50 (SK-MEL-28) was 46.5 µM (inactive) and the GI50 (SNB-19) was > 100 µM (inactive). For the same molecule, the GI50 (HCT-116) was > 100 µM (inactive), the GI50 (SR) was 38.5 µM (inactive) and the GI50 (OVCAR-4) was > 100 µM (inactive). The GI50 (HOP-62) was 20.8 µM (inactive), the GI50 (MOLT-4) was 36.2 µM (inactive) and the GI50 (TK-10) was > 100 µM (inactive). For the same molecule, the GI50 (SNB-78) was > 100 µM (inactive), the GI50 (CAKI-1) was > 100 µM (inactive) and the GI50 (HOP-92) was > 100 µM (inactive). The GI50 (NCI-H23) was > 100 µM (inactive), the GI50 (NCI-H522) was > 100 µM (inactive) and the GI50 (OVCAR-5) was > 100 µM (inactive). The GI50 (LOX IMVI) was 25.5 µM (inactive), the GI50 (K562) was 59.8 µM (inactive) and the GI50 (HOP-18) was > 100 µM (inactive). For the same molecule, the GI50 (HT-29) was > 100 µM (inactive).

CCCCCC/C=C1\CCC(CN2CCCC2)C1=O (stereo not drawn) was tested, and the GI50 (LXFL 529) was 3.85 µM (inactive), the GI50 (SF-295) was 18.9 µM (inactive) and the GI50 (HL-60) was 2.33 µM (inactive). For the same molecule, the GI50 (KM-20L2) was 20.5 µM (inactive), the GI50 (DLD-1) was 5.21 µM (inactive) and the GI50 (NCI-H226) was 19.1 µM (inactive). The GI50 (SN12C) was 12.9 µM (inactive), the GI50 (RXF 631) was 20.1 µM (inactive) and the GI50 (SK-MEL-5) was 18.6 µM (inactive). The GI50 (XF498) was 17.4 µM (inactive), the GI50 (SK-MEL-2) was 15.8 µM (inactive) and the GI50 (COLO 205) was 16.4 µM (inactive). For the same molecule, the GI50 (EKVX) was 18.5 µM (inactive), the GI50 (DMS-273) was 12.7 µM (inactive) and the GI50 (A498) was 22.8 µM (inactive). For the same molecule, the GI50 (KM12) was 3.56 µM (inactive), the GI50 (M14) was 18.6 µM (inactive) and the GI50 (M19-MEL) was 11.4 µM (inactive). The GI50 (OVCAR-3) was 13.9 µM (inactive), the GI50 (Malme-3M) was 19.2 µM (inactive) and the GI50 (SW-620) was > 28.2 µM (inactive). The GI50 (SF-268) was 18.5 µM (inactive), the GI50 (HCC 2998) was 17.5 µM (inactive) and the GI50 (UACC-62) was 18.2 µM (inactive). For the same molecule, the GI50 (HCT-15) was 9.16 µM, the GI50 (CCRF-CEM) was 4.49 µM (inactive) and the GI50 (NCI-H460) was 24.6 µM (inactive). The GI50 (SF-539) was 19 µM (inactive), the GI50 (SNB-75) was 20.9 µM (inactive) and the GI50 (UO-31) was 18.9 µM (inactive). The GI50 (786-0) was 2.61 µM (inactive), the GI50 (ACHN) was 18.3 µM (inactive) and the GI50 (IGROV-1) was 19.7 µM (inactive). The GI50 (RXF 393) was 19.4 µM (inactive), the GI50 (U-251) was 15.6 µM (inactive) and the GI50 (A549) was 20.5 µM (inactive). For the same molecule, the GI50 (RPMI-8226) was 2.01 µM (inactive), the GI50 (OVCAR-8) was 17.2 µM (inactive) and the GI50 (SK-OV-3) was 18.7 µM (inactive). For the same molecule, the GI50 (DMS-114) was 13.8 µM (inactive), the GI50 (UACC-257) was 17.9 µM (inactive) and the GI50 (SK-MEL-28) was 19.1 µM (inactive). For the same molecule, the GI50 (SNB-19) was > 38.5 µM (inactive), the GI50 (HCT-116) was 11.9 µM (inactive) and the GI50 (SR) was 2.99 µM (inactive). For the same molecule, the GI50 (OVCAR-4) was 22.8 µM (inactive), the GI50 (HOP-62) was 18.7 µM (inactive) and the GI50 (MOLT-4) was 3.76 µM (inactive). For the same molecule, the GI50 (TK-10) was 6.56 µM (inactive), the GI50 (SNB-78) was 26 µM (inactive) and the GI50 (CAKI-1) was > 38.5 µM (inactive). The GI50 (HOP-92) was 16.7 µM (inactive), the GI50 (NCI-H23) was 16.9 µM (inactive) and the GI50 (NCI-H522) was 1.56 µM (inactive). For the same molecule, the GI50 (OVCAR-5) was 18.3 µM (inactive), the GI50 (LOX IMVI) was 8.3 µM (inactive) and the GI50 (K562) was 3.87 µM (inactive). For the same molecule, the GI50 (HOP-18) was 18.7 µM (inactive) and the GI50 (HT-29) was 13.9 µM (inactive).

— ChEMBL document CHEMBL1201862, “PubChem BioAssay data set” (2004)
